This is an account of results in patent publication US6825233B2, “Compounds having retinoid-like activity” (Bristol-Myers Squibb Company, priority 2001, dated 2004).

Structures are written as SMILES. Read-outs that look alike come from different tables or passages of the source.

What is called Kd is the free concentration of one partner at which half of the binding sites on the other are occupied at equilibrium, for simple one-to-one binding. As usually defined, the EC50 is the midpoint of the concentration-response curve. Read a high EC50 as a less potent agent. The term IC50 denotes the concentration that gives 50% inhibition.

The target in one test is T1, RARα (Homo sapiens, UniProt P10276).
T1 construct: made in house; host or cells: E. coli BL21 (DE3)
T1 sequence (P10276 183-417 limits assumed): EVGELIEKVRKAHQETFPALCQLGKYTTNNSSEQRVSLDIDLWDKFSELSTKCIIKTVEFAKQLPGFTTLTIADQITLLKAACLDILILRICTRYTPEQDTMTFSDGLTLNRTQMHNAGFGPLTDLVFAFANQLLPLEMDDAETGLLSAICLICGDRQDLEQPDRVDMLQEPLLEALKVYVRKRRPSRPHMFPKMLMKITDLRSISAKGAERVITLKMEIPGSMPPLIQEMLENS
As to the kind of experiment: Competition binding assay using Yttrium SPA beads, RARα.

A further test deals with T2, RARβ (Homo sapiens, UniProt P10826).
T2 construct: made in house; host or cells: E. coli BL21 (DE3)
T2 sequence (P10826 183-417 limits assumed): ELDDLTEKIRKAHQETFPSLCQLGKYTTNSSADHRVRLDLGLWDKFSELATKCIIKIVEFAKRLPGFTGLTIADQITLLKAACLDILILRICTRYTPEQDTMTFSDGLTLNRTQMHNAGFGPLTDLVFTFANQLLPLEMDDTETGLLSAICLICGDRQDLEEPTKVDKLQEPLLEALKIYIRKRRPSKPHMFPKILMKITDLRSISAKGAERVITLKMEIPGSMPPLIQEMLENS
As to the kind of experiment: Competition binding assay using Yttrium SPA beads, RARβ.

The target in the next test is T3, RARγ (Homo sapiens, UniProt P13631).
T3 construct: made in house; host or cells: E. coli BL21 (DE3)
T3 sequence (P13631 185-419 limits assumed): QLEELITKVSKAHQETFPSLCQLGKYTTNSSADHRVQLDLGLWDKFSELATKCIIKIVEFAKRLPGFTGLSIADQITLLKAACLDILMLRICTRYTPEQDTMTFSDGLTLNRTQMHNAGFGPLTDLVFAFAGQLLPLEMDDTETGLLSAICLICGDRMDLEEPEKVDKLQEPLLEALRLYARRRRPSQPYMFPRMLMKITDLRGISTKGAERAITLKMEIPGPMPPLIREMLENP
The test is described as follows: Competition binding assay using Yttrium SPA beads, RARγ.

For the next test, the target named is T4, GAL-RARα (Homo sapiens, UniProt P10276).
T4 construct: expressed in transfected cells
T4 sequence (P10276 183-417 limits assumed): T1 sequence (P10276 183-417 limits assumed)
The test is described as follows: Transactivation assay, HeLa cells with GAL-RARα and (17 mer)x5-Glob-Luc reporter. In kind it is cell-based. The settings on record: stable HeLa cell line, luciferase reporter, 24 hours. On the technique in general: A reporter such as luciferase makes a cellular process visible.

Another test concerns the target T5, GAL-RARβ (Homo sapiens, UniProt P10826).
T5 construct: expressed in transfected cells
T5 sequence (P10826 183-417 limits assumed): T2 sequence (P10826 183-417 limits assumed)
As to the kind of experiment: Transactivation assay, HeLa cells with GAL-RARβ and (17 mer)x5-Glob-Luc reporter. The settings on record: stable HeLa cell line, luciferase reporter, 24 hours. In kind it is cell-based.

For a further test, the target named is T6, GAL-RARγ (Homo sapiens, UniProt P13631).
T6 construct: expressed in transfected cells
T6 sequence (P13631 185-419 limits assumed): T3 sequence (P13631 185-419 limits assumed)
As to the kind of experiment: Transactivation assay, HeLa cells with GAL-RARγ and (17 mer)x5-Glob-Luc reporter. In kind it is cell-based. The settings on record: stable HeLa cell line, luciferase reporter, 24 hours.

The subject of a further test is T47D. The test is described as follows: Growth assay, [3H]-thymidine incorporation, T47D. The settings on record: Homo sapiens, T47D cells, 3 or 6 days incubation, read-out: Cell Growth Inhibition (IC50, nM) T47D. In kind it is cell-based. As for the experimental part:
(§1) Principle of the assay: The proliferation of the cells was measured by the incorporation of [^3H]-Thymidine in the DNA of dividing cells.
(§2) Protocol: The number of cells which was plated has been primarily defined to avoid the cells reaching confluence before the end of the experiment duration (T47D & HT3, 750 cells/well; H3396, 200 cells/well of 96 well plates). The first day, the cells were plated in 96 well plates and incubated overnight at 37° C. (in […]; CO2, 5%), allowing the cells adhering to the support. The next day, the compounds were added to the cells and incubated for 3 or 6 days (note: for the 6-day incubation, the medium was replaced at Day3). At the end of the treatment, 10 μl of [^3H]-thymidine (final concentration of 0.4 μCi/well) were added for 4 hours at 37° C., the medium was finally removed, the cells trypsinized and harvested under vacuum on GF/B glass fiber filters. After 3 washes with distilled water, the filter were dried and counted in a scintillation counter after adding 50 μl of Microscint (Packard) to each filter. The percentage of growth inhibition was calculated by using DMSO as reference, which is the vehicle of the compounds. Growth inhibition is reported as IC50's in nM
For orientation: Incorporation of labelled thymidine or its analogues reports DNA synthesis.

In the next test the test system is HT3. The test is described as follows: Growth assay, [3H]-thymidine incorporation, HT3. In kind it is cell-based. The settings on record: Homo sapiens. As for the experimental part:
as §1, §2

Where [1] appears, read: HT-3, HT3 cells, [3H]-thymidine incorporation, 3 or 6 days incubation, read-out: Cell Growth Inhibition (IC50, nM) HT3.

For `CC1(C)Cc2ccc(O)cc2-c2cc(/C=C/c3ccc(C(=O)O)cc3)ccc21` [Compound 8], the results for the Kd on RARα, on RARβ and at RARγ were 8.3 nM, 18.6 nM and 52.8 nM, respectively. Moreover, the EC50 on GAL-RARα was found to be 13.5 nM; at GAL-RARβ it was 1.76 nM; on GAL-RARγ, 47 nM. Also, the IC50 is 4.8 nM in the test on T47D and 1160 nM with HT3 (setting [1]).

`CC1=C(/C=C/C(C)=C/C=C/C(C)=C/C(=O)O)C(C)(C)CCC1` [Retinoic acid, reference compound]: the IC50 stood at 6.5 nM with T47D and 1 nM in the test on HT3 (HT-3, read-out: Cell Growth Inhibition (IC50, nM) HT3).

In the case of `COc1ccc2c(c1)-c1cc(/C=C/c3ccc(C(=O)O)cc3)ccc1C(C)(C)C2` [Compound 10], the values for the Kd at RARα, at RARβ and at RARγ were 1.1 nM, 1.6 nM and 10.6 nM, respectively. Moreover, the EC50 amounted to 0.02 nM on GAL-RARα, 0.005 nM on GAL-RARβ and 1.9 nM at GAL-RARγ. For the same compound, the IC50 with T47D and in the test with HT3 (setting [1]) was < 0.01 nM each time.
